The source of these data is US6444670B2 (Wyeth, priority 1998, dated 2002).

Series [1] deals with T1, Human recombinant PTP1B (hPTP1B) (Homo sapiens, UniProt P18031).
T1 construct: made in house
T1 sequence (P18031 1-435): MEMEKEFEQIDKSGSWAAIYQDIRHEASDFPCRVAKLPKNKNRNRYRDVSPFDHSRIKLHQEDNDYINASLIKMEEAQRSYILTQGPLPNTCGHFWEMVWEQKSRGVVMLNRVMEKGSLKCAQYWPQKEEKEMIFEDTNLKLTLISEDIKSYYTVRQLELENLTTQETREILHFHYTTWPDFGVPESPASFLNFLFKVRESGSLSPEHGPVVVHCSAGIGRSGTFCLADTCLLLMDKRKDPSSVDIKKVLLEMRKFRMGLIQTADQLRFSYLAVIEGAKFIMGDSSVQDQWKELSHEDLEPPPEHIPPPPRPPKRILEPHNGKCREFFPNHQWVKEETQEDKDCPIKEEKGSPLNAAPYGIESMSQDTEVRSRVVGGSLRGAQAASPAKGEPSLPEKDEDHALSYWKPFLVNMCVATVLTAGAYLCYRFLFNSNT
It is filed as biochemical.

In series [2] the test system is rat hepatic microsomal PTPases. The conditions noted are these: 50 μM compound.
A further series concerns diabetic (ob/ob) mice. Briefly: Blood glucose lowering in diabetic (ob/ob) mice. The series is classed as in vivo, mouse. The note with it: plasma glucose, dose 25 mg/Kg, (a) = no significant activity (p < 0.05) at this dose. An excerpt:
The procedures used and results obtained are briefly described below.
The non-insulin dependent diabetic (NIDDM) syndrome can be typically characterizes by obesity, hyperglycemia, abnormal insulin secretion, hyperinsulinemia and insulin resistance.
In each test procedure, mice [Male or female ob/ob (C57 B1/6J) and their lean litermates (ob/+ or +/+, Jackson Laboratories) ages 2 to 5 months (10 to 65 g)] of a similar age were randomized according to body weight into 4 groups of 10 mice. The mice were housed 5 per cage and are maintained on normal rodent chow with water ad libitum. Mice received test compound daily by gavage (suspended in 0.5 ml of 0.5% methyl cellulose); dissolved in the drinking water; or admixed in the diet. The dose of compounds given ranges from 2.5 to 200 mg/kg body weight/day. The dose is calculated based on the fed weekly body weight and is expressed as active moiety. […] Control mice received vehicle only.
On the morning of Day 4, 7 or 14 two drops of blood (approximetly 50 ul) were collected into sodium fluoride containing tubes either from the tail vein or after decapitation. For those studies in which the compound was administered daily by gavage the blood samples were collected 0 and 4 hours after compound administration. The plasma was isolated by centrifugation and the concentration of glucose is measured enzymatically on an Abbott V. P. Analyzer.
For each mouse, the percentage change in plasma glucose on Day 4, 7 or 14 is calculated relative to the mean plasma glucose of the vehicle treated mice. Analysis of variance followed by Dunett's Comparison Test (one-tailed) are used to estimate the significant difference between the plasma glucose values from the control group and the individual compound treated groups (CMS SAS Release 5.18).

Compound `Cc1sc2c(Br)c3ccccc3c(-c3cc(Br)c(O)c(Br)c3)c2c1C` [Example 9, 2,6-Dibromo-4-(9-bromo-2,3-dimethyl-naphtho[2,3-b]thiophen-4-yl)-phenol] returned a melting point of 172 to 174 °C. The IC50 in series [1] was determined as 539 nM. Besides, the “% Change from Control” value in series [2] was −49.80%.
In the same order, the values of `Cc1c(CN2CCOCC2)sc2c(Br)c3ccccc3c(-c3cc(Br)c(O)c(Br)c3)c12` [Example 19, 2,6-Dibromo-4-(9-bromo-3-methyl-2-morpholin-4-ylmethyl-naphtho[2,3-b]thiophen-4-yl)-phenol] are 237 to 240 °C, 697 nM and −30.40%.
Compound `Cc1sc2c(Br)c3ccccc3c(-c3ccc(O)c([N+](=O)[O-])c3)c2c1C` [Example 20, 4-(9-Bromo-2,3-dimethyl-naphtho[2,3-b]thiophen-4-yl)-2-nitro-phenol] returned a melting point of 183 to 185 °C. Besides, in series [2], the “% Change from Control” value worked out at 2.13%.
The compound `Cc1sc2c(Br)c3ccccc3c(-c3cc(Br)c(O)c([N+](=O)[O-])c3)c2c1C` [Example 21, 2-Bromo-4-(9-bromo-2,3-dimethyl-naphtho[2,3-b]thiophen-4-yl)-6-nitro-phenol] gave a melting point of 129 to 130 °C. Also, the half-inhibitory concentration (IC50) in series [1] was 381 nM. Further, in series [2], the “% Change from Control” value is given as −63.12%.
The compound `Cc1sc2c(Br)c3ccccc3c(-c3ccc(O)c(N)c3)c2c1C` [Example 22, 2-Amino-4-(9-bromo-2,3-dimethyl-naphtho[2,3-b]thiophen-4-yl)-phenol] yielded a melting point of 173 to 175 °C. Besides, in series [2], the “% Change from Control” value is −28.57%.
Compound `Cc1sc2c(Br)c3ccccc3c(-c3cc(Br)c(O[C@H](C)C(=O)O)c(Br)c3)c2c1C` [Example 30, (R)-2-[2,6-Dibromo-4-(9-bromo-2,3-dimethylnaptho[2,3-b]thien-4-yl)-phenoxy]-propanoic acid] gave a melting point of 224 to 225 °C. Further, in series [1], the IC50 worked out at 869 nM. Moreover, the “% Change from Control” value in series [2] is −60.32%.
In the same order, the values of `Cc1sc2c(Br)c3ccccc3c(-c3cc(Br)c(O[C@@H](CCc4ccccc4)C(=O)O)c(Br)c3)c2c1C` [Example 31, (S)-2-[2,6-Dibromo-4-(9-bromo-2,3-dimethyl-naphtho[2,3-b]thiophen-4-yl)-phenoxy]-4-phenyl-butyric acid] are 176 to 177 °C, 49 nM and −63.42%.
In turn, `Cc1sc2c(Br)c3ccccc3c(-c3cc(Br)c(O[C@H](Cc4ccccc4)C(=O)O)c(C4CCCC4)c3)c2c1C` [Example 48] gave a melting point of 167 to 168.5 °C. For the same compound, the IC50 in series [1] was 83 nM. Further, in the series on diabetic (ob/ob) mice, the “% Change Glucose from Vehicle” value is recorded as −20.1 ^ %. The “% Change from Control” value in series [2] was −44.69%.
For the compound `Cc1sc2c(Br)c3ccccc3c(-c3cc(C(C)C)c(OCC(=O)O)c(C(C)C)c3)c2c1C` [Example 53, [4-(9-Bromo-2,3-dimethyl-naphtho[2,3-b]thiophen-4-yl)-2,6-diisopropyl-phenoxy]-acetic acid], the melting point lay in the range of 228 to 231 °C. Moreover, in series [1], the IC50 is 204 nM. The “% Change from Control” value in series [2] was −81.83%.
As to `COc1c(Br)cc(-c2c3ccccc3c(Br)c3sc(C)c(C)c23)cc1NCC(=O)O` [Example 60, [3-Bromo-5-(9-bromo-2,3-dimethyl-naphtho[2,3-b]thiophen-4-yl)-2-methoxy-phenylamino]-acetic Acid], the melting point is > 190 °C (dec.). In addition, in series [1], the IC50 stood at 1510 nM.

Usually IC50 stands for the concentration needed to halve the response being measured. A word on the melting point: it is the temperature, or range, at which the solid turns liquid.
